In patent US6630125B2, “18F-labeled choline analogs” (priority 2000, dated 2003):

Legend:
[1] = system: PC-3 human prostate cancer cells; assay: Accumulation of radiotracers by cultured PC-3 cells; type: cell-based
Procedure: The incubation media utilized for the experiments differed according to the cancer cell type (Table 1). On the day of the study, the medium was refreshed using a volume of 1 ml in each well. Cells were incubated in control conditions or with the addition of metabolic and growth factor receptor inhibitors to test the sensitivity of uptake of the radiotracers to specific inhibitions. […] Following a 30-min incubation period, the radiotracers (e.g., FDG or FCH) were added (˜2 µCi/well) and the cells were incubated for 2 hr. The cells were washed three times with phosphate buffered saline solution, released from the plates by briefly incubating with 0.05% trypsin in DMEM, transferred to test tubes, and counted for F-18 radioactivity in a gamma counter. The amount of radioactivity in the cells was normalized by the dose administered to each well.
The present work studies the structure-activity relationships for purposes of optimization of the molecule for imaging prostate cancer. […] A number of structural analogs of choline were labeled as N-[^18F]fluoromethyl derivatives via the intermediate [^18F]fluorobromomethane (see Table 3). Uptake of the radiotracers was assessed in cultured PC-3 human prostate cancer cells and in a murine PC-3 xenograft model.

[2] = system: patients with brain tumors; assay: PET imaging in patients with brain tumors; type: in vivo, human; settings: 5 patients with resected brain tumors, after injection
Procedure: In breast cancer patients, whole-body PET scans were obtained, beginning at 10 min post-administration of FCH. In patients with brain tumors, PET scans of the brain were obtained, beginning at 5 min post-administration of FCH.
PET imaging was performed in 5 patients with resected brain tumors for evaluation of recurrence of cancer. Dynamic images were obtained over the brain for the first 15 min after injection of FCH (2.5-6 mCi). Transmission scans were acquired before injection of radiotracer for purposes of attenuation correction. […] Radioactivity concentration in normal brain tissue was very low, allowing excellent delineation of the tumor. […] (See FIG. 12)

[3] = Stability of the FCH preparation (HPLC); type: physicochemical; settings: room temperature for 7 hr, cation-exchange HPLC
Procedure: The stability of FCH in its prepared form was evaluated by monitoring the radiochemical purity using the HPLC system described above. […] After an incubation of 2 hr at 37 C, the plasma was separated, the plasma proteins precipitated by adding two volumes of methanol, and the supernatant was analyzed for intact FCH by cation-exchange HPLC. […] FCH was also found to be stable in a blood samples taken from healthy human subjects (n=5).

[4] = system: patients with prostate cancer; assay: PET imaging in patients with prostate cancer; settings: human, in vivo
Procedure: The distribution of FCH in PET imaging studies was evaluated in 14 patients with prostate cancer, 14 patients with breast cancer, and 5 patients with brain tumors. Imaging was performed using the Advance PET scanner (GE Medical Systems, Milwaukee, Wis.). […] In prostate cancer patients, a transmission scan of the pelvic region was obtained before administration of radiotracer. FCH (2.5-5 mCi) was administered intravenously, and dynamic imaging of the pelvis region was commenced for 20-30 min. During image reconstruction, the emission data in the pelvic region were corrected for photon attenuation using the transmission scan. Immediately following the dynamic scan, a whole-body emission scan was performed without transmission scanning for attenuation correction. The images were reconstructed using an Ordered Subset Expectation Maximum (OS-EM) algorithm. Regions-of-interest were drawn manually on the attenuation corrected images for evaluation of FCH kinetics in tissues. Standardized uptake values of FCH uptake in tissues were calculated using the attenuation-corrected images according to the equation: [formula]
Patient 2: Transmission and FCH emission scans of a person with hormone naive clinical stage T2 prostate cancer were commenced over the lower pelvis.
The same patient was scanned with FDG within the same week (FIG. 8).
Patient 4: A person with a history of clinical stage T3b prostate cancer treated by radical retropubic prostatectomy was diagnosed with metastatic disease by bone scan. FCH-PET imaging was performed before and after initiating androgen deprivation therapy. In the first study, whole-body emission scanning was started 5 min after injection, beginning at the pelvic region in order to image the pelvis and prostatic bed before arrival of urinary radioactivity. […] The patient was rescanned 2 weeks after initiating androgen deprivation therapy.
Patient 5: A person was initially diagnosed five years prior with locally advanced clinical stage T3NOMO prostate cancer and underwent radical prostatectomy followed by external beam radiation to the prostate bed. […] The patient was then treated with Zolex and Casodex.

[5] = Human dosimetry estimation (MIRDOSE 3.1 from mouse biodistribution)
Description: Urinary radioactivity was assumed to be retained within the urinary bladder. […] Since urinary excretion patterns in rodents are commonly more rapid than in the human, the assumption of no urinary clearance of radioactivity was precautionary. Bone uptake was distributed at the bone surfaces. The 70 kg adult male ORNL phantom was used since this would best reflect the primary study population (prostate carcinoma).

[6] = calculated from mice biodistribution data

## C[N+](C)(CF)CCO.[Cl-] [FCH, dimethylfluoromethyl-2-hydroxyethylammonium chloride]
[1]
  uptake in cultured PC-3 cells: ~2 %/hr/100,000 cells plated
[1]; 5 mM hemicholinium-3
  Uptake by PC-3 cancer cells, HC-3: 0.18 ± 0.02 % dose/2 hr/105 cells plated
[1]; HC-3 versus control
  decrease in uptake by PC-3 cells with hemicholinium-3 (HC-3): 89%
[1]; PC-3 prostate cancer cells
  uptake of FCH relative to HARA-1: 3 fold
[1]; control conditions
  accumulation by cultured PC-3 cells compared with other tracers: similarly to CH
[1]; control, 2 hr incubation
  Uptake by PC-3 cancer cells, Control: 1.58 ± 0.18 % dose/2 hr/105 cells plated
[1]; inhibitor HC-3 (hemicholinium-3, 5 mM)
  Uptake by PC-3 cells: 0.160 ± 0.009 % dose/2 hr/10^5 cells plated
[1]; inhibitor none
  Uptake by PC-3 cells: 1.574 ± 0.033 % dose/2 hr/10^5 cells plated
[2]
  time to plateau of radiotracer concentration in the tumor: ≤ 5 min
[3]
  radiochemical purity after storage of the preparation: > 99%
[4]
  decrease of SUV in ischial metastasis: 68%
  decrease of SUV in primary tumor: 61%
  decrease of SUVs in the tumors: 35-40%
[4]; male
  SUV in ischial metastasis: 2.4
  SUV in primary tumor: 3.0
  SUV index in osseous lesions: 8.0
  SUV values in osseous lesions of the pelvis region: 3.8-8.0
  injected dose of radioactivity in urine: 1.3%
  radioactivity concentration in the brain relative to prostate gland or metastasis: < 2%
  time of arrival of radioactivity in the urinary bladder / urine: about 8 min
  time to plateau of radioactivity concentration in prostate and metastasis: ≤ 5 min
  time to plateau of radioactivity concentration in the prostate bed: ≤ 3 min
  tracer uptake in osseous lesions, FCH relative to FDG: 2 fold
[4]; male, 2 min
  arterial concentration relative to the peak level: < 5%
[4]; male, 5 min
  SUV of osseous metastasis (left ischium): 7.7
  SUV of primary tumor: 7.7
[5]; 10 mCi administration
  effective dose equivalent (EDE): 1.1 rem
  largest organ dose (kidney): 8.1 rads/rems
[5]; calculated from mice FCH biodistribution data, 70 kg adult male phantom
  Human radiation dose estimate, Heart: 0.046 rads/mCi
[5]; [6]
  Human radiation dose estimate, Bladder wall: 0.049 rads/mCi
  Human radiation dose estimate, Bone: 0.038 rads/mCi
  Human radiation dose estimate, Brain: 0.0071 rads/mCi
  Human radiation dose estimate, Kidney: 0.81 rads/mCi
  Human radiation dose estimate, Liver: 0.30 rads/mCi
  Human radiation dose estimate, Lung: 0.043 rads/mCi
  Human radiation dose estimate, Muscle: 0.032 rads/mCi
  Human radiation dose estimate, Ovaries: 0.039 rads/mCi
  Human radiation dose estimate, Red marrow: 0.043 rads/mCi
  Human radiation dose estimate, Testes: 0.028 rads/mCi
